The text below walks through data of patent publication US20050170392A1, “OAT3 transporters expressed in blood brain barrier cells” (priority 2004, published 2005).

The target in one data set is T1, OAT3 (Homo sapiens, UniProt Q8TCC7).
T1 sequence (Q8TCC7 1-542): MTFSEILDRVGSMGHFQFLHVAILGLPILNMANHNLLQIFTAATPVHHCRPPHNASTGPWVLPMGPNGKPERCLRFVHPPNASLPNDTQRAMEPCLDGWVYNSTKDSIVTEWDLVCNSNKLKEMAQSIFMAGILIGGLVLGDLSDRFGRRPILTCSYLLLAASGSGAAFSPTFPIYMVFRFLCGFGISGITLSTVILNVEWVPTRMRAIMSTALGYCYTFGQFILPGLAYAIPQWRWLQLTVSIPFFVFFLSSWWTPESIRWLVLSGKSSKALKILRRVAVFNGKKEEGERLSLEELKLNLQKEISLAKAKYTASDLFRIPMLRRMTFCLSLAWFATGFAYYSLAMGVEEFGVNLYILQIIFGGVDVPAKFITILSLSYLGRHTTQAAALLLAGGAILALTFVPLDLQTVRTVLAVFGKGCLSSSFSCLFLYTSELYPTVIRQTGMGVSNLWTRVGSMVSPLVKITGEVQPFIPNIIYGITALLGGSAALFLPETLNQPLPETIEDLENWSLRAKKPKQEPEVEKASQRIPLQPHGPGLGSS
To be noted: cited from earlier work.

Another data set concerns the target T2, PgP (Homo sapiens, UniProt P08183).
T2 construct: expressed in transfected cells; host or cells: MDCK cells
Description: Cellular transwell monolayer efflux assay, MDCK cells transfected with TREx-PgP. The format is in vitro ADME. As to the method:
A third type of efflux transporter assay is the cellular transwell monolayer efflux assay. […] The cells form a polarized monolayer. The transwell dishes have apical and basolateral chambers that are separated by the filter membrane on which the polarized monolayer is situated. Assays are performed by placing a test compound in either the apical or basolateral chamber, followed by sampling the opposite chamber after a predetermined period of time such as 60-120 minutes and measuring the amount of the test compound. The test compound can be measured by methods such as radiolabel detection or LC-MS-MS analysis. Assays are performed in the presence and absence of an efflux transporter inhibitor or competitor. Efflux transporter inhibitors or competitors increase apical to basolateral transport and decrease basolateral to apical transport of compounds that are efflux transporter substrates. Apparent permeability (Papp) of test compounds is measured. […] Test compounds that generate ratios between 1.5 and 2.0 require additional testing to determine if they are efflux transporter substrates.
MDCK cells transfected with the tetracycline-inducible TREx-PgP expression vector were seeded on polycarbonate filter membranes in transwell dishes and grown for 3-5 days, yielding a polarized monolayer with tight junctions between cells. […] The left set of bars depicts apical to basolateral transport, while the right set of bars depicts basolateral to apical transport.

Where [1] appears, read: 2.5 nM 3H-vinblastine, in the presence of 250 μM verapamil versus absence, FIG. 6.

Each structure is given as a SMILES string.

T2 sequence (P08183 whole entry): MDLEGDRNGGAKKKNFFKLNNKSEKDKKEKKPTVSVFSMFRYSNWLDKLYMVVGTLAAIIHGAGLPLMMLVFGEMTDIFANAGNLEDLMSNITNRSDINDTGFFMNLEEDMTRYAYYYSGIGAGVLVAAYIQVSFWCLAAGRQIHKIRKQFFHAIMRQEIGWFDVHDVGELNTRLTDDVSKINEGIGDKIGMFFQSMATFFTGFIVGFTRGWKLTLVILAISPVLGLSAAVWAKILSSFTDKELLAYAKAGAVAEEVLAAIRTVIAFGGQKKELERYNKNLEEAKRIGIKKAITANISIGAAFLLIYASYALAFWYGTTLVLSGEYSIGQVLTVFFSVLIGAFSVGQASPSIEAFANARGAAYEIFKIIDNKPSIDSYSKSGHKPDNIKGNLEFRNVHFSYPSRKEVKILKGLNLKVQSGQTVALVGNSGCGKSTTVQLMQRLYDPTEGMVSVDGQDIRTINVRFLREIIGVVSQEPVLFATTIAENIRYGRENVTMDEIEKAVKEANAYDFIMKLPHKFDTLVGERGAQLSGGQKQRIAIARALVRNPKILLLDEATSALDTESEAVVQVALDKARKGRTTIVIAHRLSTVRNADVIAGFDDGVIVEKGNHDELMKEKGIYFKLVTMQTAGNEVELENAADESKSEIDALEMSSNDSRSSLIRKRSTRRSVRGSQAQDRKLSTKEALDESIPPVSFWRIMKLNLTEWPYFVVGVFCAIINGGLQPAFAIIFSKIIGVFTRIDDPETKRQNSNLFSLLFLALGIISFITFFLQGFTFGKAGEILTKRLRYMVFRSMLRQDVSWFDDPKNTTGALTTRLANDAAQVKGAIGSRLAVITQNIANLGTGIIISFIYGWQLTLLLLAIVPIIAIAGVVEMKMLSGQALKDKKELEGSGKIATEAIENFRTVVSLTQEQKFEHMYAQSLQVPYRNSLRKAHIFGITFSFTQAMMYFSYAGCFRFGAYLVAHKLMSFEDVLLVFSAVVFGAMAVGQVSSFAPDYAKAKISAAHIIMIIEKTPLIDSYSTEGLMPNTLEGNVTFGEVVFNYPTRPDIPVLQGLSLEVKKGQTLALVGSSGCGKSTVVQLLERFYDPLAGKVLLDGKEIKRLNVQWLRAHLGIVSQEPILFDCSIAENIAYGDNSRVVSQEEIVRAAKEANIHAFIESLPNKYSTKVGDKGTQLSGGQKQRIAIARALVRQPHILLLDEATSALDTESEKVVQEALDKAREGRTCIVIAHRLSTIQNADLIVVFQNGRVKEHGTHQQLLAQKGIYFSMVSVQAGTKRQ

`CC1(C)S[C@@H]2[C@H](NC(=O)Cc3ccccc3)C(=O)N2[C@H]1C(=O)O` [Benzylpennicillin]: the “Reported Affinity for OAT3” value at OAT3 was 0.3 mM.
With `C[C@]12CC[C@@H]3c4ccc(OS(=O)(=O)O)cc4CC[C@H]3[C@@H]1CCC2=O` [Estrone-3-sulphate], the “Reported Affinity for OAT3” value on OAT3 was 0.04 mM.
As for `C[C@@H]1Cc2c(Cl)cc(C(=O)N[C@@H](Cc3ccccc3)C(=O)O)c(O)c2C(=O)O1` [Ochratoxin A], the “Reported Affinity for OAT3” value at OAT3 is 0.05 mM.
For `CCCN(CCC)S(=O)(=O)c1ccc(C(=O)O)cc1` [Probenecid], the “Reported Affinity for OAT3” value on OAT3 is on record as 0.05 mM.
Regarding `CC[C@]1(O)C[C@@H]2CN(CCc3c([nH]c4ccccc34)[C@@](C(=O)OC)(c3cc4c(cc3OC)N(C)[C@H]3[C@@](O)(C(=O)OC)[C@H](OC(C)=O)[C@]5(CC)C=CCN6CC[C@]43[C@@H]65)C2)C1` [^3H-vinblastine, vinblastine], on PgP (setting [1]), the “apical to basolateral transport” value is recorded as “strongly increased” and the “basolateral to apical transport” value is on record as “strongly decreased”. At PgP (conclusion from transwell transport with and without verapamil), the “efflux transporter substrate status” value was “substrate of PgP”.
